Data on four molecules can be found in publication PMC3914206.

Common to all, as to assay type: binding
What all share (parameters): KINOMEscan: ABL1(F317L)-phosphorylated / KINOMEscan: ABL1(H396P)-nonphosphorylated / KINOMEscan: ABL1(H396P)-phosphorylated / KINOMEscan: ABL1(M351T)-phosphorylated / KINOMEscan: ABL1(T315I)-phosphorylated / KINOMEscan: ABL1-nonphosphorylated / KINOMEscan: ABL1-phosphorylated / KINOMEscan: ACVR2A / KINOMEscan: ACVR2B / KINOMEscan: ADCK3 / KINOMEscan: ADCK4 / KINOMEscan: AKT1 / KINOMEscan: AKT3 / KINOMEscan: ALK / KINOMEscan: ARK5 / KINOMEscan: AURKA / KINOMEscan: AURKC / KINOMEscan: BIKE / KINOMEscan: BMPR1A / KINOMEscan: BMPR1B / KINOMEscan: BMX / KINOMEscan: BRK / KINOMEscan: BRSK1 / KINOMEscan: BRSK2 / KINOMEscan: CAMK1 / KINOMEscan: CAMK1D / KINOMEscan: CAMK1G / KINOMEscan: CAMK2A / KINOMEscan: CAMK2B / KINOMEscan: AAK1 / KINOMEscan: CAMK2D / KINOMEscan: CAMK2G / KINOMEscan: ABL1(F317I)-nonphosphorylated / KINOMEscan: ABL1(F317I)-phosphorylated / KINOMEscan: ABL1(F317L)-nonphosphorylated: unit: % Ctrl
Holding throughout (settings): Compound Concentration 10 µM

Experiment [1] concerns the target T1, panel of 442 kinases (Homo sapiens, UniProt Q8TDC3).
T1 construct: purchased KINOMEscan
T1 sequence (Q8TDC3 1-778): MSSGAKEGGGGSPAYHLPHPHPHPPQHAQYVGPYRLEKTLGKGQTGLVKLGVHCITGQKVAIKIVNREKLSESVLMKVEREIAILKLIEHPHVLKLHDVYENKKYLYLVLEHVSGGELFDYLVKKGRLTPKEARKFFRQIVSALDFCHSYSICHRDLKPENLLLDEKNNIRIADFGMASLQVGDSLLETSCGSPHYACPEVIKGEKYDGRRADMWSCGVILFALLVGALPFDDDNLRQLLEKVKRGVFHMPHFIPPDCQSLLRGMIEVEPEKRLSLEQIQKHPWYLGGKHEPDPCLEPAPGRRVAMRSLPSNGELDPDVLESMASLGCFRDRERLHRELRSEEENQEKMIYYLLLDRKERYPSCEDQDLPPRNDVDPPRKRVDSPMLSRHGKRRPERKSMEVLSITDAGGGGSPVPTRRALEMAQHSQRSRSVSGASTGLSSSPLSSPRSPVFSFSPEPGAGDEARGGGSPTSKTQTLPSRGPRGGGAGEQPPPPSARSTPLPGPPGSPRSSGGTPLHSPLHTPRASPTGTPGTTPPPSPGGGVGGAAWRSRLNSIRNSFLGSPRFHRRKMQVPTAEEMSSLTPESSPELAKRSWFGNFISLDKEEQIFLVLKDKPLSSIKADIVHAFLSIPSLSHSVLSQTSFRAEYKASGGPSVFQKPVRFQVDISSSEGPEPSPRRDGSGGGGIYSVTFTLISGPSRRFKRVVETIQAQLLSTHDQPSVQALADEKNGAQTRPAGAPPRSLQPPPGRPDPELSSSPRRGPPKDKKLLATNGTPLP
The text has this:
(§1) We assessed the selectivity of members of this scaffold using the KINOMEscan methodology across a near comprehensive panel of 442 kinases [[18,27]].

Experiment [2] addresses T2, panel of 442 kinases (Homo sapiens, UniProt P06241).
T2 construct: purchased KINOMEscan
Source text: as §1

Experiment [3] addresses T3, panel of 442 kinases (Homo sapiens, UniProt P49840).
T3 construct: purchased KINOMEscan
Source text: as §1

T2 sequence (P06241 whole entry): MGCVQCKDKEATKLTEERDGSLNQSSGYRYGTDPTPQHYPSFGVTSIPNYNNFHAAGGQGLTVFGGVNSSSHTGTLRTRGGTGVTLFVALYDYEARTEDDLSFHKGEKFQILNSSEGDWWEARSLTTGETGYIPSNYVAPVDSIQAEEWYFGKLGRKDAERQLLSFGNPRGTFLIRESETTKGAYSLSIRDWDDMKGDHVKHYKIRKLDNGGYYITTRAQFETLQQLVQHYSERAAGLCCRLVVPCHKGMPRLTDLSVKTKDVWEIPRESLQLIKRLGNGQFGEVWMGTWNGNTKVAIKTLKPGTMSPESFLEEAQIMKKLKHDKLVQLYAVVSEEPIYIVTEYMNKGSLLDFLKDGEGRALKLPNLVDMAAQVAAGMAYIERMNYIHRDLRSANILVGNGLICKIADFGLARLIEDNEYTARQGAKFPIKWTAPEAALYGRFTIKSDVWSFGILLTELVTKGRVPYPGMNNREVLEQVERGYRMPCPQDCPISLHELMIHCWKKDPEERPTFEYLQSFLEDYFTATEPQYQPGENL
T3 sequence (P49840 whole entry): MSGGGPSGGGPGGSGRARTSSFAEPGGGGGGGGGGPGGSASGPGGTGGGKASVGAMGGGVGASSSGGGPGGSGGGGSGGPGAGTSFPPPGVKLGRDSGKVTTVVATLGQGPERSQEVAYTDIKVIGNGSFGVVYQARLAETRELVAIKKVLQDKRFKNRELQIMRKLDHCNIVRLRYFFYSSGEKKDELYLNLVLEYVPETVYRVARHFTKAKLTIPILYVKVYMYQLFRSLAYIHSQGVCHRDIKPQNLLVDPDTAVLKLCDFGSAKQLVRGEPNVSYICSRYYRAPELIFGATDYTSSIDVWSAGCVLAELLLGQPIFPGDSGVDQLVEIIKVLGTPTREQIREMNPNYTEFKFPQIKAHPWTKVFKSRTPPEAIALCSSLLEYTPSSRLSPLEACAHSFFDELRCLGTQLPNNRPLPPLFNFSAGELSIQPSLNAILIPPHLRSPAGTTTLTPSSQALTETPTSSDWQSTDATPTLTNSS

Regarding `COc1cc(C(=O)N2CCC(N3CCN(C)CC3)CC2)ccc1Nc1ncc2c(n1)N(C)c1ccccc1C(=O)N2C` [15 (LRRK2-IN-1)], the “KINOMEscan: BRSK1” value on panel of 442 kinases [1] is reported as 81. Besides, the “KINOMEscan: FYN” value at panel of 442 kinases [2] was 100. Besides, the “KINOMEscan: GSK3A” value at panel of 442 kinases [3] was 100.
Consider `COc1cc(C(=O)N2CCC(N3CCN(C)CC3)CC2)ccc1Nc1ncc2c(n1)N1CCc3cccc(c31)C(=O)N2C` [Compound 24], for which the “KINOMEscan: BRSK1” value on panel of 442 kinases [1] was determined as 82. For the same molecule, the “KINOMEscan: FYN” value on panel of 442 kinases [2] was found to be 82.
Regarding `COc1cc(C(=O)N2CCC(N3CCN(C)CC3)CC2)ccc1Nc1ncc2c(n1)N(C1CCCC1)c1ccccc1C(=O)N2C` [Compound 25, 11-cyclopentyl-2-((2-methoxy-4-(4-(4-methylpiperazin-1-yl)piperidine-1-carbonyl)phenyl)amino)-5-methyl-5H-benzo[e]pyrimido[5,4-b][1,4]diazepin-6(11H)-one], the “KINOMEscan: BRSK1” value on panel of 442 kinases [1] is 84. Also, the “KINOMEscan: FYN” value on panel of 442 kinases [2] came to 86. Besides, the “KINOMEscan: GSK3A” value at panel of 442 kinases [3] came out at 100.
For `CCOc1cc(C(=O)N2CCC(N3CCN(C)CC3)CC2)ccc1Nc1ncc2c(n1)N(C1CCCC1)c1ccccc1C(=O)N2C` [Compound 26], the “KINOMEscan: BRSK1” value on panel of 442 kinases [1] is 100. Moreover, on panel of 442 kinases [2], the “KINOMEscan: FYN” value stood at 78. Also, the “KINOMEscan: GSK3A” value at panel of 442 kinases [3] worked out at 100.
